Test results: patent US10689673B2, “Bioconversion process for producing nylon-7, nylon-7,7 and polyesters” (INVISTA NORTH AMERICA S.A.R.L., priority 2011, dated 2020)

What was measured:
ACOT3 (formerly PTE-1a) = molecular target: T1, ACOT3 (formerly PTE-1a) (Mus musculus, UniProt Q9QYR7); details: cited from earlier work
T1 construct: His tag; host or cells: E. coli
T1 sequence (Q9QYR7 1-432): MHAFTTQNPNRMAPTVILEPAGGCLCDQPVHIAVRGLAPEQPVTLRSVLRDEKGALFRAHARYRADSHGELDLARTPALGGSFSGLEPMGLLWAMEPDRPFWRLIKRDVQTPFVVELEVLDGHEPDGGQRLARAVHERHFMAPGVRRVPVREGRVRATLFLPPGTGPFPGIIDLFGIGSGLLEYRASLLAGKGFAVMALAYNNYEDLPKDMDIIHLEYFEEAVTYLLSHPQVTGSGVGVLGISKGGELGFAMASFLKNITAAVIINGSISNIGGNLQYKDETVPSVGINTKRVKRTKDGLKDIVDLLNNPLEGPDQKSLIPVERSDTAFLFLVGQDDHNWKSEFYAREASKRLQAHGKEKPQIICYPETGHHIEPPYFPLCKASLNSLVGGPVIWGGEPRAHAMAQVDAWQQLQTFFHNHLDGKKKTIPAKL

[1] = molecular target: T2, ACOT4 peroxisomal acyl-CoA thioesterase 4 (Mus musculus, UniProt Q8BWN8); details: at concentrations up to 500 μM; cited from earlier work
T2 construct: His tag; host or cells: E. coli
T2 sequence (Q8BWN8 1-421): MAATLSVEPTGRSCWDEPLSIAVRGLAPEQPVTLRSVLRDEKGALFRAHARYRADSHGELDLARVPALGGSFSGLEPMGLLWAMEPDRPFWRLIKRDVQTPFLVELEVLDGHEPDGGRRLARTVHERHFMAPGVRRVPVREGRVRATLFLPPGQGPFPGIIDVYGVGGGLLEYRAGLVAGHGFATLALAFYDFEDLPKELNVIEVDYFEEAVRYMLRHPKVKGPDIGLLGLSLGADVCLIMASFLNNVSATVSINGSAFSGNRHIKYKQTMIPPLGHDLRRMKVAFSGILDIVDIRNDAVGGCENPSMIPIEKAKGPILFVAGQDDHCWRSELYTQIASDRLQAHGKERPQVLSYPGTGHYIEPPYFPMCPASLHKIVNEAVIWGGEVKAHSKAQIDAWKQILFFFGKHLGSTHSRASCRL

ACOT5 (formerly PTE-1c) = molecular target: T3, ACOT5 (formerly PTE-1c) (Mus musculus, UniProt Q6Q2Z6); details: cited from earlier work
T3 construct: His tag; host or cells: E. coli
T3 sequence (Q6Q2Z6 1-421): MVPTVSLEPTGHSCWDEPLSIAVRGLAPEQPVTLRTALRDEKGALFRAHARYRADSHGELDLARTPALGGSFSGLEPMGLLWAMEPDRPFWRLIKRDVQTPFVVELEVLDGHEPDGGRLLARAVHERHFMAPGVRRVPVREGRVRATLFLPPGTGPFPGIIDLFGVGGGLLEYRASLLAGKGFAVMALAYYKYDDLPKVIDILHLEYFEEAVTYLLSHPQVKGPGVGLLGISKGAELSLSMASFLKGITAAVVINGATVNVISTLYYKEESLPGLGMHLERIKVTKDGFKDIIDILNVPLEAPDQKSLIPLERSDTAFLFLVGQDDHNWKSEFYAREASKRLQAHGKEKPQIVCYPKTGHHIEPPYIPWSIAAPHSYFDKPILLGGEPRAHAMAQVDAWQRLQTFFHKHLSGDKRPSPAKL

[2] = molecular target: T4, Haemophilus influenzae YciA thioesterase (Haemophilus influenzae, UniProt P44886); experiment: Biotransformation of pimeloyl-CoA to pimelic acid with YciA thioesterase cell free extract; assay type: biochemical; details: 1 mM substrate, ~15 g/L whole cell equivalents, pH 7.5, 20° C., after 1 hour
T4 construct: made in house; host or cells: E. coli BL21 (DE3), cell-free extract
T4 sequence (P44886 whole entry): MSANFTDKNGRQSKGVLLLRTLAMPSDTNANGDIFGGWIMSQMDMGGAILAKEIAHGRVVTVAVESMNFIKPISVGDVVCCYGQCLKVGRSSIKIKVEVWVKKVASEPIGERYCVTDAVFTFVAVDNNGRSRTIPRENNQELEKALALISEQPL
Protocol: Biotransformations were carried out in a final volume of 2 mL. The biotransformations comprised of 1 mM substrate, 200 mM KCl and 50 mM potassium Hepes (pH 7.5). Negative controls comprised of cells harbouring the empty vector The biocatalyst was charged as a cell free extract to give a final concentration of ˜15 g/L whole cell equivalents. The reactions were carried out at ambient temperature (20° C.) in 15 mL falcon tubes with stirring. Each biotransformation was sampled after 1 h, 4 h and 24 h and analysed by HPLC (Agilent 1100) on a Phenomenex Luna C18 250×4.6 mm, 5 micron column. […] The filtrates were analysed by HPLC at 260 nm for the disappearance of pimeloyl-CoA (Rt 12.39 mins) and the formation of CoA (Rt 7.98 minutes), both which absorbs strongly at this wavelength, while pimlic acid was not detectable by UV at 260 nm. Pimelic acid formation was confirmed by LC-MS.

[3] = molecular target: T5, Clostridium tetanomorphum methylaspartate ammonia lyase (MAL) (Clostridium tetanomorphum, UniProt Q05514); experiment: Biotransformation of beta-methyl aspartate with I5 lyase strain cell extract; assay type: biochemical; details: 10 mM substrate, 5 or 20 g/L whole cell equivalent, 30° C., after 1 hour
T5 construct: made in house; host or cells: E. coli BL21 (DE3), pET21-a, cell-free extract
T5 sequence (Q05514 whole entry): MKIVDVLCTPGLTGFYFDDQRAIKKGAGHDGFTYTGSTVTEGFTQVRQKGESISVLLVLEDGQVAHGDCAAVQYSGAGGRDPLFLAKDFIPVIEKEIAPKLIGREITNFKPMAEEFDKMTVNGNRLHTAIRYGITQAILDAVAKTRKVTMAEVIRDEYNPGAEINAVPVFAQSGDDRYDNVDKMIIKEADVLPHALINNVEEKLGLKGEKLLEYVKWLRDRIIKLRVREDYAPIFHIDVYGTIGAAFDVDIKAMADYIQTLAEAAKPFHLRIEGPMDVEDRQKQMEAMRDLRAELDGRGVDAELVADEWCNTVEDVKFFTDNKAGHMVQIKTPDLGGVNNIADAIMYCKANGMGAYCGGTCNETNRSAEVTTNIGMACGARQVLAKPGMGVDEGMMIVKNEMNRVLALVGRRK

[4] = molecular target: T6, Citrobacter amalonaticus methylaspartate ammonia lyase (MAL) (Citrobacter amalonaticus, UniProt O66145); experiment: Biotransformation of beta-methyl aspartate with I4 lyase strain cell extract; assay type: biochemical; details: 10 mM substrate, 5 or 20 g/L whole cell equivalent, 30° C., after 1 hour
T6 construct: made in house; host or cells: E. coli BL21 (DE3), pET21-a, cell-free extract
T6 sequence (O66145 whole entry): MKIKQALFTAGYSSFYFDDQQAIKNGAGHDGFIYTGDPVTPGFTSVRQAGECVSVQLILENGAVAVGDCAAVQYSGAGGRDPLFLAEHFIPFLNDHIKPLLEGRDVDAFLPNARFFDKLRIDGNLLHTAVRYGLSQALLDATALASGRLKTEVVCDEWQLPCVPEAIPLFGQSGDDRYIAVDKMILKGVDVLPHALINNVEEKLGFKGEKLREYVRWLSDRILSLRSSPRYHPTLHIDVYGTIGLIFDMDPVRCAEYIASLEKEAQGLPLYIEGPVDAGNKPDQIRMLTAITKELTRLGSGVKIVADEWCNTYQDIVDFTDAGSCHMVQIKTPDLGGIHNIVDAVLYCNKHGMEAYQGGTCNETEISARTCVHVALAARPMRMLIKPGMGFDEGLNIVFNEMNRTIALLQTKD

[5] = system: Aspergillus oryzae methylaspartate ammonia lyase (MAL); details: 10 mM substrate, 5 or 20 g/L whole cell equivalent, 30° C., 1, 5 and 18 hours
[6] = molecular target: T7, Aminoadipate aminotransferase (Q64602) (Bos taurus, UniProt Q5E9N4); details: cited from earlier work
T7 construct: host or cells: bovine kidney
T7 sequence (Q5E9N4 30-425, one chain of several): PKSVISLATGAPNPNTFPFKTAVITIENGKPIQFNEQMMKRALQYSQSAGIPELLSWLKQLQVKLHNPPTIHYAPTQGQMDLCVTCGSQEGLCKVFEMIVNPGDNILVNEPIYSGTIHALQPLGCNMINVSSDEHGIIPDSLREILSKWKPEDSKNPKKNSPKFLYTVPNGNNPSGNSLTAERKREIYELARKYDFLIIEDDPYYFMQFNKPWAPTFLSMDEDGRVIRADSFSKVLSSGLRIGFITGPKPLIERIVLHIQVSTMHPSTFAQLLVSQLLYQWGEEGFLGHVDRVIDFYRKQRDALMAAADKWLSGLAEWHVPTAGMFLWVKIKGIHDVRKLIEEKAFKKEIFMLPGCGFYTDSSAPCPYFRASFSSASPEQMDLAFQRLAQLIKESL

[7] = molecular target: T8, Nocardia sp. carboxylic acid reductase (CAR) (Nocardia iowensis, UniProt Q6RKB1); experiment: Carboxylic acid reductase (CAR) spectrophotometric assay of NADPH consumption; assay type: biochemical
T8 construct: made in house; host or cells: E. coli BL21, cell-free extract
T8 sequence (Q6RKB1 2-1174): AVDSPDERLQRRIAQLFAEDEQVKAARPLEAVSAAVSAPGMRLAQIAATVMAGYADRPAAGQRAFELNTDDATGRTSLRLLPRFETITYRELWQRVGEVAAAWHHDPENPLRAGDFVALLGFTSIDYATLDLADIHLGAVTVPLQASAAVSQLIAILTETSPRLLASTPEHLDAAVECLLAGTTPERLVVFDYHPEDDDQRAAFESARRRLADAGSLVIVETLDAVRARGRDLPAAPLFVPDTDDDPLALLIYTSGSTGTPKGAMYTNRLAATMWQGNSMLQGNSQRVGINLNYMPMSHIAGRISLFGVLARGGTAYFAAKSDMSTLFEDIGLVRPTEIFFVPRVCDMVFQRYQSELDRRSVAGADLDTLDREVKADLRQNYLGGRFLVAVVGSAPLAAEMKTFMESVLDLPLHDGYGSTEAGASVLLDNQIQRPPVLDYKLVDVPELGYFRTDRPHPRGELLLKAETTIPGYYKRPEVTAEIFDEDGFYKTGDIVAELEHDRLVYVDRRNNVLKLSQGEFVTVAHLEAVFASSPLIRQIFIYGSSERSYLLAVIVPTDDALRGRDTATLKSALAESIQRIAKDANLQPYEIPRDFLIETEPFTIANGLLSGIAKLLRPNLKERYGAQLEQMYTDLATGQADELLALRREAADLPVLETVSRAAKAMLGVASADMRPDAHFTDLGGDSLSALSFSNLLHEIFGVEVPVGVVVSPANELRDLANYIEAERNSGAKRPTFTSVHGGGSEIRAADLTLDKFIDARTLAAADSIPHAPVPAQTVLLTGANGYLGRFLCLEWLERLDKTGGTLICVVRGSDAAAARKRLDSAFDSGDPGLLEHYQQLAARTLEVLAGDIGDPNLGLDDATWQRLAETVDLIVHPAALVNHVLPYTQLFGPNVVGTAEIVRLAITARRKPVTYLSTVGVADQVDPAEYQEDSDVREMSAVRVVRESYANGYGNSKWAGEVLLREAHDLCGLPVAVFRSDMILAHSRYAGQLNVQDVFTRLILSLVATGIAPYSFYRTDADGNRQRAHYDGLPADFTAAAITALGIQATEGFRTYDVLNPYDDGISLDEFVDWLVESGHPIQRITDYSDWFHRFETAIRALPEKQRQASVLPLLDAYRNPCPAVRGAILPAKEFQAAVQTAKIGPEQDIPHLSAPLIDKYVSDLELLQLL
Text: The conditions for the assay were taken from Applied and Environmental Microbiology 2004, 70, p 1874-1881.

[8] = system: PauA pimeloyl-CoA ligase (EC 6.2.1.14); details: substrate of pauA; pimelate = 100%; cited from earlier work

## CC(C)(COP(=O)(O)OP(=O)(O)OC[C@H]1O[C@@H](n2cnc3c(N)ncnc32)[C@H](O)[C@@H]1OP(=O)(O)O)[C@@H](O)C(=O)NCCC(=O)NCCS [CoASH]
ACOT3 (formerly PTE-1a)
  inhibition with free CoASH: no inhibition
[1]
  inhibition of the reaction by CoASH: not inhibited
ACOT5 (formerly PTE-1c)
  inhibition with free CoASH: no inhibition

## CC(C)(COP(=O)(O)OP(=O)(O)OC[C@H]1O[C@@H](n2cnc3c(N)ncnc32)[C@H](O)[C@@H]1OP(=O)(O)O)[C@@H](O)C(=O)NCCC(=O)NCCSC(=O)CCCCCC(=O)O [pimeloyl-CoA]
[2]
  hydrolysis to pimelic acid: Complete hydrolysis

## C[C@H](C(=O)O)[C@@H](N)C(=O)O (racemic) [DL-threo-beta methyl aspartate]
[3]
  conversion to mesaconic acid: complete conversion
[4]
  conversion to mesaconic acid: complete conversion
[5]
  lyase activity (mesaconic acid formation): No activity

## O=C(O)CCCCCC(=O)O [Pimelic acid]
[6]
  reduction in activity in the presence of pimelic acid: 30%
[7]; 50 mM substrate, rCAR cell free extract 4.3 g/L whole cell equivalents, pH 7.5, ~20 deg C, change in absorbance over time
  NADPH consumption (uncorrected): −0.00096
[7]; as uncorrected, corrected with negative control (BL21 empty vector) rate
  NADPH consumption (corrected for background): −0.00103
[7]; reduction to pimelic acid semialdehyde
  activity relative to the activity for benzoic acid: > 100%
[8]
  relative activity: 100%
